Like-named read-outs stand apart in the source and are kept apart here.
Columns and labels:
MV4;11 cells = assay: Cell viability assay (CellTiter-Glo) in MV4;11 cells, alone or with gilteritinib; type: cell-based; details: Homo sapiens, MV4-11, 72 h, MV4;11 cells, three days, CellTiter-Glo, read-out: MV4
MOLM-13 cells = assay: Cell viability assay (CellTiter-Glo) in MOLM-13 cells, alone or with gilteritinib; type: cell-based; details: Homo sapiens, MOLM-13, 72 h, MOLM-13 cells, three days, CellTiter-Glo
[1] = compound alone (without gilteritinib), 11 IC50
[2] = compound with gilteritinib 10 nM, 11 IC50 gilteritinib
[3] = compound alone (without gilteritinib), read-out: MOLM-13 IC50
[4] = compound with gilteritinib 20 nM, read-out: MOLM-13 IC50 gilteritinib
[5] = with gilteritinib 10 nM, 11 IC50 gilteritinib
[6] = with gilteritinib 20 nM, read-out: MOLM-13 IC50 gilteritinib

| IC50 (MV4;11 cells; [1]) | IC50 (MV4;11 cells; [2]) | IC50 (MOLM-13 cells; [3]) | IC50 (MOLM-13 cells; [4]) | IC50 (MV4;11 cells; [5]) | IC50 (MOLM-13 cells; [6]) | Compound |
| --- | --- | --- | --- | --- | --- | --- |
| 10 to 100 nM | < 10 nM | 10 to 100 nM | < 10 nM |  |  | O=C1CCC(N2C(=O)c3ccc(NC[C@H]4C[C@H](n5cc(-c6ccccc6Cl)c(C6CC6)n5)C4)cc3C2=O)C(=O)N1 (stereo partly drawn) [GS-458, 5-(((trans-3-(4-(2-chlorophenyl)-3-cyclopropyl-1H-pyrazol-1-yl)cyclobutyl)methyl)amino)-2-(2,6-dioxopiperidin-3-yl)isoindoline-1,3-dione] |
| > 1000 nM |  | > 1000 nM |  | > 1000 nM | < 10 nM | O=C1CCC(N2C(=O)c3ccc(NCCCN4CCCC(N5CCN(c6ccccn6)CC5)C4)cc3C2=O)C(=O)N1 (stereo not drawn) [GS-350, 2-(2,6-Dioxopiperidin-3-yl)-5-((3-(3-(4-(pyridin-2-yl)piperazin-1-yl)piperidin-1-yl)propyl)amino)isoindoline-1,3-dione] |
| 10 to 100 nM |  | 10 to 100 nM |  | 10 to 100 nM | < 10 nM | O=C1CCC(N2C(=O)c3ccc(NCCCC4CC(n5cc(-c6cnc7ccc(N8CCOCC8)cc7n6)cn5)C4)cc3C2=O)C(=O)N1 (stereo not drawn) [GS-173, 2-(2,6-Dioxopiperidin-3-yl)-5-((3-(3-(4-(7-morpholinoquinoxalin-2-yl)-1H-pyrazol-1-yl)cyclobutyl)propyl)amino)isoindoline-1,3-dione] |
| 10 to 100 nM |  | < 10 nM |  | < 10 nM | < 10 nM | O=C1CCC(N2Cc3c(Nc4ccnc(Nc5cccc(N6CCC(n7cc(-c8cnc9ccccc9n8)cn7)CC6)c5)n4)cccc3C2=O)C(=O)N1 (stereo not drawn) [GS-025, 3-(1-Oxo-4-((2-((3-(4-(4-(quinoxalin-2-yl)-1H-pyrazol-1-yl)piperidin-1-yl)phenyl)amino)pyrimidin-4-yl)amino)isoindolin-2-yl)piperidine-2,6-dione] |
| < 10 nM |  | < 10 nM |  | < 10 nM | < 10 nM | O=C1CCC(N2C(=O)c3ccc(NCCCNC(=O)N4CCC(n5cc(-c6cnc7ccccc7n6)cn5)CC4)cc3C2=O)C(=O)N1 (stereo not drawn) [GS-132, N-(3-((2-(2,6-dioxopiperidin-3-yl)-1,3-dioxoisoindolin-5-yl)amino)propyl)-4-(4-(quinoxalin-2-yl)-1H-pyrazol-1-yl)piperidine-1-carboxamide] |
| 10 to 100 nM |  | 100 to 1000 nM |  | 10 to 100 nM | < 10 nM | O=C1CCC(N2C(=O)c3ccc(NCCC[C@H]4C[C@H](n5cc(-c6cnc7c(N8CCNCC8)cccc7n6)cn5)C4)cc3C2=O)C(=O)N1 (stereo partly drawn) [GS-405, 2-(2,6-Dioxopiperidin-3-yl)-5-((3-(trans-3-(4-(5-(piperazin-1-yl)quinoxalin-2-yl)-1H-pyrazol-1-yl)cyclobutyl)propyl)amino)isoindoline-1,3-dione] |
| > 1000 nM |  | > 1000 nM |  | 100 to 1000 nM | > 1000 nM | O=C1CCC(N2C(=O)c3ccc(NC(=O)CCCC(=O)N4CCC(n5cc(-c6cnc7ccccc7n6)cn5)CC4)cc3C2=O)C(=O)N1 (stereo not drawn) [GS-327, N-(2-(2,6-Dioxopiperidin-3-yl)-1,3-dioxoisoindolin-5-yl)-5-oxo-5-(4-(4-(quinoxalin-2-yl)-1H-pyrazol-1-yl)piperidin-1-yl)pentanamide] |
| 100 to 1000 nM |  | 100 to 1000 nM |  | 10 to 100 nM | 10 to 100 nM | O=C1CCC(N2C(=O)c3ccc(NC[C@H]4C[C@H](n5cc(-c6cnc7ccc(C8CCOCC8)cc7n6)cn5)C4)cc3C2=O)C(=O)N1 (stereo partly drawn) [GS-180, 2-(2,6-Dioxopiperidin-3-yl)-5-(((trans-3-(4-(7-(tetrahydro-2H-pyran-4-yl)quinoxalin-2-yl)-1H-pyrazol-1-yl)cyclobutyl)methyl)amino)isoindoline-1,3-dione] |
| > 1000 nM | > 1000 nM | > 1000 nM | > 1000 nM |  |  | O=C1CCC(N2C(=O)c3ccc(NCCC[C@H]4C[C@H](n5cc(-c6cnc7ccc(N8C[C@H]9C[C@@H]8CN9)cc7n6)cn5)C4)cc3C2=O)C(=O)N1 (stereo partly drawn) [GS-415, 5-((3-(trans-3-(4-(7-((1R,4R)-2,5-diazabicyclo[2.2.1]heptan-2-yl)quinoxalin-2-yl)-1H-pyrazol-1-yl)cyclobutyl)propyl)amino)-2-(2,6-dioxopiperidin-3-yl)isoindoline-1,3-dione] |
| 10 to 100 nM |  | 100 to 1000 nM |  | 10 to 100 nM | < 10 nM | O=C1CCC(N2Cc3ccc(CCCCCCC(=O)N4CCC(n5cc(-c6ccc7ccccc7n6)cn5)CC4)cc3C2=O)C(=O)N1 (stereo not drawn) [GS-098, 3-(1-Oxo-6-(7-oxo-7-(4-(4-(quinolin-2-yl)-1H-pyrazol-1-yl)piperidin-1-yl)heptyl)isoindolin-2-yl)piperidine-2,6-dione] |
| 10 to 100 nM |  | 10 to 100 nM |  | 10 to 100 nM | < 10 nM | O=C1CCC(N2Cc3ccc(CCCCCCCn4cc(-c5cnc6ccccc6n5)cn4)cc3C2=O)C(=O)N1 (stereo not drawn) [GS-105, 3-(1-Oxo-6-(7-(4-(quinoxalin-2-yl)-1H-pyrazol-1-yl)heptyl)isoindolin-2-yl)piperidine-2,6-dione] |
| 10 to 100 nM | < 10 nM | 10 to 100 nM | < 10 nM |  |  | CC(C)n1ccc2cnc(-c3cn([C@H]4C[C@H](CNc5ccc6c(c5)C(=O)N(C5CCC(=O)NC5=O)C6=O)C4)nc3C3CC3)cc21 (stereo partly drawn) [GS-622, 5-(((trans-3-(3-Cyclopropyl-4-(1-isopropyl-1H-pyrrolo[3,2-c]pyridin-6-yl)-1H-pyrazol-1-yl)cyclobutyl)methyl)amino)-2-(2,6-dioxopiperidin-3-yl)isoindoline-1,3-dione] |
| 10 to 100 nM | < 10 nM | 100 to 1000 nM | < 10 nM |  |  | O=C(CCC(F)(F)C(=O)N1CCC(n2cc(-c3cnc4ccccc4n3)cn2)CC1)NCc1ccc2c(c1)CN(C1CCC(=O)NC1=O)C2=O (stereo not drawn) [GS-518, N-((2-(2,6-Dioxopiperidin-3-yl)-1-oxoisoindolin-5-yl)methyl)-4,4-difluoro-5-oxo-5-(4-(4-(quinoxalin-2-yl)-1H-pyrazol-1-yl)piperidin-1-yl)pentanamide] |
| 10 to 100 nM | < 10 nM | 10 to 100 nM | < 10 nM |  |  | O=C1CCC(N2C(=O)c3ccc(NCCC[C@H]4C[C@H](n5cc(-c6cnc7ccccc7n6)c(C6CC6)n5)C4)cc3C2=O)C(=O)N1 (stereo partly drawn) [GS-568, 5-((3-((trans)-3-(3-Cyclopropyl-4-(quinoxalin-2-yl)-1H-pyrazol-1-yl)cyclobutyl)propyl)amino)-2-(2,6-dioxopiperidin-3-yl)isoindoline-1,3-dione] |
| > 1000 nM |  | > 1000 nM |  | > 1000 nM | 100 to 1000 nM | O=C(CN1CCC(n2cc(-c3ccc4ccccc4n3)cn2)CC1)NCCCNc1ccc2c(c1)C(=O)N(C1CCC(=O)NC1=O)C2=O (stereo not drawn) [GS-317, N-(3-((2-(2,6-Dioxopiperidin-3-yl)-1,3-dioxoisoindolin-5-yl)amino)propyl)-2-(4-(4-(quinolin-2-yl)-1H-pyrazol-1-yl)piperidin-1-yl)acetamide] |
| 10 to 100 nM |  | 10 to 100 nM |  | < 10 nM | < 10 nM | O=C1CCC(N2C(=O)c3ccc(NCCC[C@H]4C[C@H](n5cc(-c6cnc7ccc(C8CCOCC8)cc7n6)cn5)C4)cc3C2=O)C(=O)N1 (stereo partly drawn) [GS-181, 2-(2,6-Dioxopiperidin-3-yl)-5-((3-(trans-3-(4-(7-(tetrahydro-2H-pyran-4-yl)quinoxalin-2-yl)-1H-pyrazol-1-yl)cyclobutyl)propyl)amino)isoindoline-1,3-dione] |
| > 1000 nM |  | > 1000 nM |  | > 1000 nM | > 1000 nM | O=C(CN1CCCC(N2CCN(c3ccccn3)CC2)C1)NCc1ccc2c(c1)C(=O)N(C1CCC(=O)NC1=O)C2=O (stereo not drawn) [GS-359, N-((2-(2,6-Dioxopiperidin-3-yl)-1,3-dioxoisoindolin-5-yl)methyl)-2-(3-(4-(pyridin-2-yl)piperazin-1-yl)piperidin-1-yl)acetamide] |
| 100 to 1000 nM |  | > 1000 nM |  | > 1000 nM | 10 to 100 nM | Cc1c(-c2cnc3ccccc3n2)cnn1[C@H]1C[C@@H](CCCNc2ccc3c(c2)C(=O)N(C2CCC(=O)NC2=O)C3=O)C1 (stereo partly drawn) [GS-169, 2-(2,6-Dioxopiperidin-3-yl)-5-((3-(cis-3-(5-methyl-4-(quinoxalin-2-yl)-1H-pyrazol-1-yl)cyclobutyl)propyl)amino)isoindoline-1,3-dione] |
| 100 to 1000 nM |  | > 1000 nM |  | > 1000 nM | 100 to 1000 nM | O=C1CCC(N2Cc3cc(CCCCCCn4cc(-c5cnc6ccccc6n5)cn4)ccc3C2=O)C(=O)N1 (stereo not drawn) [GS-374, 3-(1-Oxo-5-(6-(4-(quinoxalin-2-yl)-1H-pyrazol-1-yl)hexyl)isoindolin-2-yl)piperidine-2,6-dione] |
| > 1000 nM |  | > 1000 nM |  | 100 to 1000 nM | > 1000 nM | O=C1CCC(N2C(=O)c3ccc(NC[C@H]4C[C@H](n5cc(-c6cccc(NC7CC(O)C7)n6)c(C6CC6)n5)C4)cc3C2=O)C(=O)N1 (stereo partly drawn) [GS-269, 5-(((trans-3-(3-Cyclopropyl-4-(6-((3-hydroxycyclobutyl)amino)pyridin-2-yl)-1H-pyrazol-1-yl)cyclobutyl)methyl)amino)-2-(2,6-dioxopiperidin-3-yl)isoindoline-1,3-dione] |
| 10 to 100 nM |  | 10 to 100 nM |  | 10 to 100 nM | 10 to 100 nM | O=C1CCC(N2C(=O)c3ccc(NCCC[C@H]4C[C@H](n5cc(-c6cnc7ccc(C(F)(F)F)cc7n6)cn5)C4)cc3C2=O)C(=O)N1 (stereo partly drawn) [GS-212, 2-(2,6-Dioxopiperidin-3-yl)-5-((3-(trans-3-(4-(7-(trifluoromethyl)quinoxalin-2-yl)-1H-pyrazol-1-yl)cyclobutyl)propyl)amino)isoindoline-1,3-dione] |
